The target of this test is T1, human A2a receptor (Homo sapiens, UniProt P29274).
T1 construct: purchased Perkin-Elmer RBHA2AM400UA; host or cells: HEK293 cells, used as a membrane preparation
Briefly: A2a receptor competition binding assay (Scintillation Proximity). As to conditions: membranes from HEK293 cells expressing human A2a receptor, 0.5 nM tritiated ligand, Cheng-Prusoff. The gist of the method: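 HEK293 membranes bearing the human receptor, pretreated with adenosine deaminase, competed against 0.5 nM tritiated pyrazolotriazolopyrimidine antagonist with compound at 3000–0.15 nM final in DPBS plus 10 mM MgCl2. SPA bead readout after 1 h at room temperature; Ki from EC50 via Cheng-Prusoff.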
(SPA uses beads or plates that emit light when radiolabelled molecules are held near them.)

Structures are written as SMILES. Where two headings read alike, the source gives them in different places.

T1 sequence (P29274 whole entry): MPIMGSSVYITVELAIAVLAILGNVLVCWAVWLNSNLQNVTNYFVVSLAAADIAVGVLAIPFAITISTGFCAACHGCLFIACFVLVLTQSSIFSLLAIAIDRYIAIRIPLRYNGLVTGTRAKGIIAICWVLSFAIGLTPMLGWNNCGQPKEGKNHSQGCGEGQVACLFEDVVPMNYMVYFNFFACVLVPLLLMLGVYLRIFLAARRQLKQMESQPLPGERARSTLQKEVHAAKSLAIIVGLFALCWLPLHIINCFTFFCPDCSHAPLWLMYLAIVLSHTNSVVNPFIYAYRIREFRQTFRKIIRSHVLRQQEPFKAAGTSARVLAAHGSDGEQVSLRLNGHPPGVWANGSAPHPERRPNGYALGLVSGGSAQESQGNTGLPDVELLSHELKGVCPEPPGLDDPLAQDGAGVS

Take `COc1cccc2c1nc(N)n1cc(C(=O)N3CC(C)(C)OC(C)(C)C3)nc21` [Ex-223, (5-amino-7-methoxyimidazo[1,2-c]quinazolin-2-yl)(2,2,6,6-tetramethylmorpholino) methanone]: the Ki (read-out: A2a Ki) stood at 210 nM.

`COc1cccc2c1nc(N)n1cc(C(=O)N3C4CCC3COC4)nc21` [Ex-224, (5-amino-7-methoxyimidazo[1,2-c]quinazolin-2-yl)(3-oxa-8-azabicyclo[3.2.1]octan-8-yl)methanone] registered a Ki (A2a Ki) of 8.2 nM.

In the case of `COc1cccc2c1nc(N)n1cc(C(=O)N3C[C@@H]4C[C@H]3CO4)nc21` [Ex-225, (5-amino-7-methoxyimidazo[1,2-c]quinazolin-2-yl)((1S,4S)-2-oxa-5-azabicyclo[2.2.1]heptan-5-yl)methanone], the Ki (read-out: A2a Ki) was 35 nM.

With `COC(=O)C1CCN(C(=O)c2cn3c(N)nc4c(OC)cccc4c3n2)CC1` [Ex-226, methyl 1-(5-amino-7-methoxyimidazo[1,2-c]quinazoline-2-carbonyl]piperidine-4-carboxylate], where the note is “read-out: A2a Ki”, the Ki worked out at 29 nM.

As to `COc1cccc2c1nc(N)n1cc(C(=O)N3CCC4(CCC(=O)O4)CC3)nc21` [Ex-227, 8-(5-amino-7-methoxyimidazo[1,2-c]quinazoline-2-carbonyl)-1-oxa-8-azaspiro[4.5]decan-2-one], the Ki (read-out: A2a Ki) turned out to be 240 nM.

As for `COc1cccc2c1nc(N)n1cc(C(=O)N3CCC4(CCOC4=O)CC3)nc21` [Ex-228, 8-(5-amino-7-methoxyimidazo[1,2-c]quinazoline-2-carbonyl)-2-oxa-8-azaspiro[4.5]decan-1-one], for the setting “read-out: A2a Ki”, the Ki was found to be 180 nM.

With `COc1cccc2c1nc(N)n1cc(C(=O)N3CCCC4(C3)CC(C)(C)OC4=O)nc21` (stereo not drawn) [Ex-229, 7-(5-amino-7-methoxyimidazo[1,2-c]quinazoline-2-carbonyl)-3,3-dimethyl-2-oxa-7-azaspiro[4.5]decan-1-one], under “read-out: A2a Ki”, the Ki was determined as 15 nM.

As for `COc1cccc2c1nc(N)n1cc(C(=O)N3CCC4(CCCO4)CC3)nc21` [Ex-230, (5-amino-7-methoxyimidazo[1,2-c]quinazolin-2-yl)(1-oxa-8-azaspiro[4.5]decan-8-yl)methanone], under “read-out: A2a Ki”, the Ki was determined as 61.1 nM.

Take `COc1cccc2c1nc(N)n1cc(C(=O)N3CCCC4(C3)OCCO4)nc21` [Ex-231, (5-amino-7-methoxyimidazo[1,2-c]quinazolin-2-yl)(1,4-dioxa-7-azaspiro[4.5]decan-7-yl)methanone]: for the setting “read-out: A2a Ki”, the Ki was found to be 10 nM.

Regarding `COc1cccc2c1nc(N)n1cc(C(=O)N3CCCC(OC)(OC)C3)nc21` [Ex-232, (5-amino-7-methoxyimidazo[1,2-c]quinazolin-2-yl)(3,3-dimethoxypiperidin-1-yl)methanone], where the note is “read-out: A2a Ki”, the inhibition constant (Ki) was found to be 18 nM.

Consider `COc1cccc2c1nc(N)n1cc(C(=O)N3CCCC4(CCOC4=O)C3)nc21` (stereo not drawn) [Ex-233, 7-(5-amino-7-methoxyimidazo[1,2-c]quinazoline-2-carbonyl)-2-oxa-7-azaspiro[4.5]decan-1-one], for which, where the note is “read-out: A2a Ki”, the inhibition constant Ki came out at 10 nM.

`COc1cccc2c1nc(N)n1cc(C(=O)N3CCC4(CC3)OCCC4(C)C)nc21` [Ex-234, (5-amino-7-methoxyimidazo[1,2-c]quinazolin-2-yl)(4,4-dimethyl-1-oxa-8-azaspiro[4.5]decan-8-yl)methanone]: the Ki (read-out: A2a Ki) was 2.6 nM.

Consider `COc1cccc2c1nc(N)n1cc(C(=O)N3CC4CC4C3)nc21` (stereo not drawn) [Ex-235, (5-amino-7-methoxyimidazo[1,2-c]quinazolin-2-yl)(3-azabicyclo[3.1.0]hexan-3-yl)methanone], for which, for the setting “read-out: A2a Ki”, the Ki was determined as 2.8 nM.

Consider `COc1cccc2c1nc(N)n1cc(C(=O)N3C[C@@H]4[C@@H]5CC[C@@H](C5)[C@@H]4C3)nc21` [Ex-236, (5-amino-7-methoxyimidazo[1,2-c]quinazolin-2-yl)((3aR,4R,7S,7aS)-octahydro-2H-4,7-methanoisoindol-2-yl)methanone], for which the Ki (read-out: A2a Ki) worked out at 6.4 nM.

Take `COc1cccc2c1nc(N)n1cc(C(=O)N3CC4CC3CS(=O)(=O)C4)nc21` (stereo not drawn) [Ex-237, (5-amino-7-methoxyimidazo[1,2-c]quinazolin-2-yl)(3,3-dioxido-3-thia-6-azabicyclo[3.2.1]octan-6-yl)methanone]: the Ki (read-out: A2a Ki) was determined as 37 nM.

For the compound `COc1cccc2c1nc(N)n1cc(C(=O)N3CCC(=O)C3)nc21` [Ex-238, 1-(5-amino-7-methoxyimidazo[1,2-c]quinazoline-2-carbonyl)pyrrolidin-3-one], the Ki (read-out: A2a Ki) stood at 170 nM.

For `COc1cccc2c1nc(N)n1cc(C(=O)N3C[C@@H](C)O[C@H](C)C3)nc21` [Ex-239, (5-amino-7-methoxyimidazo[1,2-c]quinazolin-2-yl)((2R,6R)-2,6-dimethylmorpholino) methanone], the inhibition constant (Ki) (read-out: A2a Ki) is 130 nM.

As for `COc1cccc2c1nc(N)n1cc(C(=O)N3CCCC(OC)C3)nc21` (stereo not drawn) [Ex-240, (5-amino-7-methoxyimidazo[1,2-c]quinazolin-2-yl)(3-methoxypiperidin-1-yl)methanone], the inhibition constant Ki (read-out: A2a Ki) is 30.6 nM.

With `COc1cccc2c1nc(N)n1cc(C(=O)N3CCCC(F)(F)C3)nc21` [Ex-241, (5-amino-7-methoxyimidazo[1,2-c]quinazolin-2-yl)(3,3-difluoropiperidin-1-yl)methanone], the Ki (read-out: A2a Ki) amounted to 13 nM.

With `COc1cccc2c1nc(N)n1cc(C(=O)N3CCCC4(CC4)C3)nc21` [Ex-242, (5-amino-7-methoxyimidazo[1,2-c]quinazolin-2-yl)(5-azaspiro[2.5]octan-5-yl)methanone], the Ki (read-out: A2a Ki) came to 4.3 nM.

In the case of `CC(=O)Nc1ccc2c(c1)CN(C(=O)c1cn3c(N)nc4c(F)cccc4c3n1)CC2` [Ex-244, N-(2-(5-amino-7-fluoroimidazo[1,2-c]quinazoline-2-carbonyl)-1,2,3,4-tetrahydroisoquinolin-7-yl)acetamide], the inhibition constant (Ki) (read-out: A2a Ki) amounted to 49.6 nM.

Take `COc1cccc2c1nc(N)n1cc(C(=O)N3CCN4CCCC[C@@H]4C3)nc21` [Ex-245, (R)-(5-amino-7-methoxyimidazo[1,2-c]quinazolin-2-yl)(octahydro-2H-pyrido[1,2-a]pyrazin-2-yl)methanone]: the Ki (read-out: A2a Ki) is 152 nM.

As for `Nc1nc2c(F)cccc2c2nc(C(=O)NCc3ccccc3CN3CCN(c4ccccn4)CC3)cn12` [Ex-246, 5-amino-7-fluoro-N-(2-((4-(pyridin-2-yl)piperazin-1-yl)methyl)benzyl)imidazo[1,2-c]quinazoline-2-carboxamide], where the note is “read-out: A2a Ki”, the Ki amounted to 21 nM.

With `Nc1nc2c(F)cccc2c2nc(C(=O)N3CCc4cccc(CN5CCN(c6ccc(F)cc6F)CC5)c4C3)cn12` [Ex-247], the Ki (read-out: A2a Ki) came to 120 nM.

As to `Nc1nc2c(F)cccc2c2nc(C(=O)NC3CCNc4ccccc43)cn12` (stereo not drawn) [Ex-248, 5-amino-7-fluoro-N-(1,2,3,4-tetrahydroquinolin-4-yl)imidazo[1,2-c]quinazoline-2-carboxamide], the Ki (read-out: A2a Ki) turned out to be 9 nM.

In the case of `Nc1nc2c(F)cccc2c2nc(C(=O)NCc3ccccc3CN3CCN(c4ccc(F)cc4F)CC3)cn12` [Ex-249, 5-amino-N-(2-((4-(2,4-difluorophenyl)piperazin-1-yl)methyl)benzyl)-7-fluoroimidazo[1,2-c]quinazoline-2-carboxamide], for the setting “read-out: A2a Ki”, the Ki amounted to 18 nM.

`Nc1nc2c(F)cccc2c2nc(C(=O)NCc3ccccc3N3CCOCC3)cn12` [Ex-250, 5-amino-7-fluoro-N-(2-morpholinobenzyl)imidazo [1,2-c]quinazoline-2-carboxamide]: for the setting “read-out: A2a Ki”, the Ki is 2 nM.

As for `Nc1nc2c(F)cccc2c2nc(C(=O)N3CCc4cccc(CN5CCN(c6ccccn6)CC5)c4C3)cn12` [Ex-251, (5-amino-7-fluoroimidazo[1,2-c]quinazolin-2-yl)(8-((4-(pyridin-2-yl)piperazin-1-yl)methyl)-3,4-dihydroisoquinolin-2(1H)-yl)methanone], the Ki (read-out: A2a Ki) is 91 nM.

Consider `Nc1nc2c(F)cccc2c2nc(C(=O)NCc3cccc(N4CCN(c5ccc(F)cc5F)CC4)c3)cn12` [Ex-252, 5-amino-N-(3-(4-(2,4-difluorophenyl)piperazin-1-yl)benzyl)-7-fluoroimidazo[1,2-c]quinazoline-2-carboxamide], for which the Ki (read-out: A2a Ki) was determined as 7.2 nM.

As to `COCCOc1ccc(N2CCN(c3ccccc3CNC(=O)c3cn4c(N)nc5c(F)cccc5c4n3)CC2)cc1` [Ex-253, 5-amino-7-fluoro-N-(2-(4-(4-(2-methoxyethoxy)phenyl)piperazin-1-yl)benzyl)imidazo[1,2-c]quinazoline-2-carboxamide], the Ki (read-out: A2a Ki) turned out to be 3.7 nM.

For the compound `COCCOc1ccc(N2CCN(c3cccc(CNC(=O)c4cn5c(N)nc6c(F)cccc6c5n4)c3)CC2)cc1` [Ex-254, 5-amino-7-fluoro-N-(3-(4-(4-(2-methoxyethoxy)phenyl)piperazin-1-yl)benzyl)imidazo[1,2-c]quinazoline-2-carboxamide], the Ki (read-out: A2a Ki) came to 5.1 nM.

In the case of `Nc1nc2c(F)cccc2c2nc(C(=O)NCc3ccccc3CN3CCOCC3)cn12` [Ex-255, 5-amino-7-fluoro-N-(2-(morpholinomethyl)benzyl) imidazo[1,2-c]quinazoline-2-carboxamide], where the note is “read-out: A2a Ki”, the Ki turned out to be 6.1 nM.

Turning to `CC(C)(C)OC(=O)N1CCN(c2ccccc2CNC(=O)c2cn3c(N)nc4c(F)cccc4c3n2)CC1` [Ex-256, tert-butyl 4-(2-((5-amino-7-fluoroimidazo[1,2-c]quinazoline-2-carboxamido)methyl)phenyl) piperazine-1-carboxylate], the Ki (read-out: A2a Ki) came out at 4.5 nM.

With `Nc1nc2c(F)cccc2c2nc(C(=O)NCc3cccc(N4CCOCC4)c3)cn12` [Ex-257, 5-amino-7-fluoro-N-(3-morpholino-benzyl)imidazo-[1,2-c]-quinazoline-2-carboxamide], the Ki (read-out: A2a Ki) was 3.6 nM.

Consider `Nc1nc2c(F)cccc2c2nc(C(=O)NCc3cccc(CN4CCOCC4)c3)cn12` [Ex-258, 5-amino-7-fluoro-N-(3-(morpholinomethyl)benzyl) imidazo[1,2-c]quinazoline-2-carboxamide], for which, for the setting “read-out: A2a Ki”, the Ki was determined as 2.3 nM.

Turning to `CC(C)(C)OC(=O)N1CCC2(CCN(C(=O)c3cn4c(N)nc5c(F)cccc5c4n3)C2)C1` (stereo not drawn) [Ex-259, tert-butyl 7-(5-amino-7-fluoroimidazo[1,2-c]quinazoline-2-carbonyl)-2,7-diazaspiro[4.4]nonane-2-carboxylate], for the setting “read-out: A2a Ki”, the Ki was found to be 29 nM.

A word on the Ki: it is the equilibrium dissociation constant of an inhibitor or competing ligand from its target.

The record behind these values is patent publication US11498923B2 (Merck Sharp & Dohme Corp., priority 2017, dated 2022).
